Experiments:
RD cells = assay: Cytotoxicity of peptides on RD cells (Cell Titer-Glo); format: cell-based, human; details: cell viability plotted against peptide concentration, Cell Titer-Glo (S1A-S1D Fig)
Experimental: To test whether Cathelicidin peptide (LL-37) and its analogues could inhibit enterovirus infection, we conducted viral infection inhibition test on RD cells, which are one of the most commonly used cells for enterovirus propagation. We first assessed the cytotoxicity of LL-37, LL-18, FF-18, and a short form of LL-37 (DL-37) (Fig 1A), and all the peptides tested have a CC50 over 50 μM (S1A–S1D Fig). We then chose lower concentrations to test their antiviral activity. […] In addition, EV71 infection could cause cytopathic effect (CPE) on RD cells, and peptide could rescue EV71-induced cell death as assayed by crystal violet staining (Fig 1E) or cellular ATP content measurement (Fig 1F).
(§1) Cell viability assays were carried out using the Cell Titer-Glo Luminescent Cell Viability Assay Kit (Promega, Madison, WI) following the manufacturer’s instructions. Luminescence signals were measured using a BioTek Neo2 microplate reader.
(A-D) Cell viability of RD cells treated with the indicated amount of DL-37 (A), LL-37 (B), LL-18 (C), or FF-18 (D) was plotted against peptide concentration, and the cytotoxicity was determined. (E) EV71 virus pre-incubated with indicated amounts of DL-37, and the cell viability was determined 24 h.p.i. ***, P<0.001. (F-G) CVB5 (F) or Echo7 (G) virus pre-incubated with 0.3, 0.9, or 1.5 μM of peptides were used to infect RD cells. Cell viability was determined 24 h.p.i. ***, P<0.001. (H-I) CVB5 (H) or Echo7 (I) virus pre-incubated with 3, 6, or 12 μM of peptides were used to infect RD cells. Cell viability was determined 24 h.p.i. ***, P<0.001. (TIF) Click here for additional data file.

EV71 virus [1] = assay: EV71 infection inhibition on RD cells (VP1 immunoblot, viral titer, cell viability/CPE); format: cell-based, enterovirus 71 (EV71); details: RD cells; for inhibition of EV71 infection at 0.3, 0.9, or 1.5 μM / inhibition of EV71 infection at higher concentration: cell viability or viral titer 24 h.p.i; for inhibition of EV71 infection at 0.3, 0.9, or 1.5 μM: 0.3, 0.9, or 1.5 μM peptide; for inhibition of EV71 infection at higher concentration: much higher concentration than 1.5 μM
Experimental: Synthetic peptides were purchased from Bioyears Co. Ltd. (Wuhan, China) with purity of more than 95% and dissolved in PBS. To test their inhibitory effects, the EV71 virus (MOI = 1) was incubated with the indicated amount of peptide at room temperature for 1 hr before the mixture was added to RD cells and maintained throughout the experiment. Cell viability, viral titer, or viral protein expression was determined 24 h.p.i. For the time-of-addition experiment, viruses were either pre-incubated with peptides (for the -2 and -1 time points), the mixture was added to the cells simultaneously (for 0 time point), or peptides were added after virus infection (for 1, 2, 4 and 7 h time points) and the virus/peptide was maintained in the culture before cell viability, viral titer, or viral protein expression was determined 24 h.p.i. The TCID50 of the virus was calculated according to the Reed-Muench method.
Cells were treated as described and harvested with LDS sample buffer (Thermo Fisher Scientific). After denaturation, samples were separated on 10% SDS-PAGE gel and then transferred to a polyvinylidene fluoride (PVDF) membrane. The proteins were blocked using 5% skimmed milk and probed with the corresponding antibodies. The following antibodies were used in this study: EV71 VP1 polyclonal antibody (GeneTex, Taiwan, China), β-Actin antibody (Zen BioScience, Chengdu, China), pan-Enterovirus Monoclonal antibody (Thermo Fisher Scientific). The chemiluminescence signals were visualized using ECL Advance reagents (Mishubio, China), and the images were acquired using the FUSION Solo S Imaging System (VILBER, France).
as §1
For crystal violet staining, cells treated as indicated were first washed once with PBS, followed by fixation with 4% PFA. Cells were then stained with 0.5% crystal violet for 2 hrs before they were extensively washed with water.

CVB5 virus = assay: 1H NMR titration of peptide with CVB5 virus; format: binding, coxsackievirus B5; details: molar ratio peptide to virus 90:1, 800 MHz, 298k
Experimental: (§2) The NMR titrations were performed on a Bruker 800 MHz (Avance NEO) spectrometer equipped with cryo-probe. The molar ratio of the peptide to the virus was 90:1. The experiments were recorded using zgespg pulse for 128 scans at 298k and the results were analyzed by Topspin.

EV71 virus [2] = assay: 1H NMR titration of peptide with EV71 virus; format: binding, enterovirus 71 (EV71); details: molar ratio peptide to virus 90:1, 800 MHz, 298k
Experimental: as §2

EV71 virions = assay: Viral particle stability thermal release assay (PaSTRY); set-up: species or system enterovirus 71 (EV71); details: EV71 MOI = 10 pre-incubated with LL-18 or NaCl, SYBR green II, heated 25°C to 80°C; PBS control around 45°C
Experimental: Fig 6 LL-18 stabilizes the viral particles by inhibiting uncoating. (A) EV71 virus (MOI = 10) was pre-incubated with PBS, indicated amount of LL-18 or NaCl for 1 hr and then mixed with SYBR green dyes II before they were heated to indicated temperatures. The fluorescent signals were measured and plotted against temperature. PBS was used as a negative control. (B) EV71 virus (MOI = 10) was pre-incubated with PBS, LL-18, or 12s for 2 hrs. Half of the samples were then treated with 1.5 μg SCARB2 protein and incubated at 37°C for 2 hrs at pH 5.5. Samples were then subjected to ultracentrifugation as detailed in materials and methods. The numbers above represent the fractions collected from top to bottom.
EV71 viruses were preincubated with either PBS, NaCl or the indicated amount of LL-18 at room temperature for 2 hrs, before Sybr green II dye (3× working concentration, Solarbio, China) and RNase inhibitor (1 U/μL, Thermo Scientific) were added. The mixture was heated from 25°C to 80°C with an increment of 0.5°C for 30 seconds, and the fluorescence from SYBR green was monitored with a QuantGene 9600 real-time PCR system (Bioer, China).

Row | Structure (SMILES) | CC50 (RD cells) | inhibition of EV71 infection at 0.3, 0.9, or 1.5 μM (EV71 virus [1]) | inhibition of EV71 infection at higher concentration (EV71 virus [1]) | inhibition of EV71 infection (overall conclusion) (EV71 virus [1]; VP1 expression, viral titer, crystal violet and Cell Titer Glo 24 h.p.i) | interaction of peptide with CVB5 virus by 1H 1D NMR (amide region) (CVB5 virus) | interaction of peptide with EV71 virus by 1H 1D NMR (amide region) (EV71 virus [2]) | temperature of peak SYBR green fluorescence intensity (RNA release) (EV71 virions)
1 | CC[C@H](C)[C@H](NC(=O)[C@H](CCCCN)NC(=O)[C@H](CCC(=O)O)NC(=O)[C@H](CCCCN)NC(=O)[C@H](CO)NC(=O)[C@H](CCCCN)NC(=O)[C@H](CCCNC(=N)N)NC(=O)[C@@H](N)Cc1ccccc1)C(=O)NCC(=O)N[C@@H](CCCCN)C(=O)N[C@@H](CCC(=O)O)C(=O)N[C@@H](Cc1ccccc1)C(=O)N[C@@H](CCCCN)C(=O)N[C@@H](CCCNC(=N)N)C(=O)N[C@H](C(=O)N[C@H](C(=O)N[C@@H](CCC(N)=O)C(=O)N[C@@H](CCCNC(=N)N)C(=O)N[C@H](C(=O)N[C@@H](CCCCN)C(=O)N[C@@H](CC(=O)O)C(=O)N[C@@H](Cc1ccccc1)C(=O)N[C@@H](CC(C)C)C(=O)N[C@@H](CCCNC(=N)N)C(=O)N[C@@H](CC(N)=O)C(=O)N[C@@H](CC(C)C)C(=O)N[C@H](C(=O)O)C(C)C)[C@@H](C)CC)C(C)C)[C@@H](C)CC (racemic) [DL-37] | over 50 μM | could not inhibit EV71 infection | only showed inhibition at a much higher concentration | little antiviral activity | – | – | –
2 | CC[C@H](C)[C@H](NC(=O)[C@H](CCCCN)NC(=O)[C@H](CCC(=O)O)NC(=O)[C@H](CCCCN)NC(=O)[C@H](CO)NC(=O)[C@H](CCCCN)NC(=O)[C@H](CCCNC(=N)N)NC(=O)[C@H](Cc1ccccc1)NC(=O)[C@H](Cc1ccccc1)NC(=O)[C@H](CC(=O)O)NC(=O)CNC(=O)[C@H](CC(C)C)NC(=O)[C@@H](N)CC(C)C)C(=O)NCC(=O)N[C@@H](CCCCN)C(=O)N[C@@H](CCC(=O)O)C(=O)N[C@@H](Cc1ccccc1)C(=O)N[C@@H](CCCCN)C(=O)N[C@@H](CCCNC(=N)N)C(=O)N[C@H](C(=O)N[C@H](C(=O)N[C@@H](CCC(N)=O)C(=O)N[C@@H](CCCNC(=N)N)C(=O)N[C@H](C(=O)N[C@@H](CCCCN)C(=O)N[C@@H](CC(=O)O)C(=O)N[C@@H](Cc1ccccc1)C(=O)N[C@@H](CC(C)C)C(=O)N[C@@H](CCCNC(=N)N)C(=O)N[C@@H](CC(N)=O)C(=O)N[C@@H](CC(C)C)C(=O)N[C@H](C(=O)N1CCC[C@H]1C(=O)N[C@@H](CCCNC(=N)N)C(=O)N[C@H](C(=O)N[C@@H](CCC(=O)O)C(=O)N[C@@H](CO)C(=O)O)[C@@H](C)O)C(C)C)[C@@H](C)CC)C(C)C)[C@@H](C)CC [LL-37, reference compound] | over 50 μM | could not inhibit EV71 infection | only showed inhibition at a much higher concentration | – | no interaction between the peptide and viruses | no interaction between the peptide and viruses | –
3 | [Cl-].[Na+] [NaCl, reference compound] | – | – | – | – | – | – | 55 °C

From PMC10846744, “Cathelicidin peptide analogues inhibit EV71 infection through blocking viral entry and uncoating” (PLOS Pathogens, 2024)
